According to patent EP0326329B1, “Quinazoline derivatives useful as insecticides” (Dow AgroSciences LLC, priority 1988, dated 1989):

Assays:
Assay type in all cases: in vivo
[1] = system: Southern corn rootworm (Diabrotica undecimpuctata howardi Barber); experiment: Mite/insect screen, soil treatment (CRW); settings: percent mortality; for mortality at 24 ppm / mortality at 12 ppm: Diabrotica, read-out: CRW RESULTS %; for mortality at 12 ppm: CRW rate 12.00 ppm
Procedure, shortened: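 Compounds dissolved in acetone/alcohol (50:50) with Toximul R/S emulsifiers, diluted with water. Soil (15 g, with presoaked corn seed) treated with 1 mL test solution, dried 6–12 h, then five 2–3 instar larvae added; held at 23°C. Percent mortality and phytotoxicity scored after standard exposure periods.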

[2] = system: Twospotted spider mites (Tetranychus urticae Koch); experiment: Mite/insect screen, sprayed squash cotyledons (SM); settings: percent mortality; for mortality at 400 ppm / mortality at 200 ppm: Tetranychus urticae, read-out: SM RESULTS %; for mortality at 200 ppm: spray rate 200 ppm
Procedure, shortened: (§1)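 Acetone/alcohol (50:50) + emulsifier blends 23 g/L and 13 g/L; water dilution to test concs. Spray both leaf surfaces to runoff, dry 1 h. For armyworm, 2 excised uninfested leaves into Petri dish with larvae. Readout: % mortality, phytotoxicity.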

[3] = system: Erysiphe graminis tritici (powdery mildew); experiment: Greenhouse Test 1, foliar spray fungicide screen (POWD MDEW), host wheat; settings: disease control rating, 400 ppm (+++ at 100 ppm)
[4] = system: Pyricularia oryzae (rice blast); settings: disease control rating, foliar spray, host rice; 400 ppm (+++ at 100 ppm)
[5] = system: Pseudoperonospora cubensis (downy mildew); experiment: Greenhouse Test 1, foliar spray fungicide screen (DOWN MDEW), host squash; settings: disease control rating, 400 ppm (+++ at 100 ppm)
[6] = system: Puccinia recondita tritici (leaf rust); experiment: Greenhouse Test 1, foliar spray fungicide screen (LEAF RUST), host wheat; settings: disease control rating, 400 ppm (+++ at 100 ppm)
[7] = system: melon aphids (Aphis gossypii Glover); experiment: Mite/insect screen, sprayed squash cotyledons (MA); settings: percent mortality; for mortality at 400 ppm / mortality at 200 ppm: Aphis gossypii, read-out: MA RESULTS %; for mortality at 200 ppm: spray rate 200 ppm
Procedure, shortened: as §1

[8] = system: Botrytis cinerea (gray mold); experiment: Greenhouse Test 1, foliar spray fungicide screen (GRAY MOLD), host grape berries; settings: disease control rating, 400 ppm (+++ at 100 ppm)
[9] = system: southern armyworm (Spodopetra eridania Cramer); experiment: Mite/insect screen, sprayed squash leaves (SAW); settings: percent mortality; for mortality at 400 ppm / mortality at 200 ppm: Spodoptera eridania, read-out: SAW RESULTS %; for mortality at 200 ppm: spray rate 200 ppm
Procedure, shortened: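 For the armyworm test, two uninfested sprayed leaves were excised, once dry for an hour, and placed in a Petri dish holding larvae. Spray solutions came from an emulsifier-containing 50:50 acetone/alcohol formulation diluted with water and were applied to runoff.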

[10] = soil treatment, CRW rate 24.00 ppm

Compound	mortality at 24 ppm [1, 10] [%]	mortality at 400 ppm ([2]; spray rate 400 ppm) [%]	POWD MDEW [3]	RICE BLAST [4]	DOWN MDEW [5]	LEAF RUST [6]	mortality at 400 ppm ([7]; spray rate 400 ppm) [%]	GRAY MOLD [8]	mortality at 400 ppm ([9]; spray rate 400 ppm) [%]	mortality at 12 ppm ([1]; soil treatment) [%]	mortality at 200 ppm [2] [%]	mortality at 200 ppm [7] [%]	mortality at 200 ppm [9] [%]	other results
FC(F)(F)c1ccccc1CCOc1ncnc2ccccc12 [Example 47, 4-[2-[2-(trifluoromethyl)phenyl]ethoxy]quinazoline]	0	0	+++ (+++ = 90-100% control at 100 ppm)	+++ (+++ = 90-100% control at 100 ppm)	+++ (+++ = 90-100% control at 100 ppm)	+++ (+++ = 90-100% control at 100 ppm)	0	- (- = 0-19% control at 400 ppm)	0					
CC(C)c1ccc(CCCCOc2ncnc3ccccc23)cc1 [Example 168, 4-[4-[4-(i-propyl)phenyl]butoxy]quinazoline]	0	0	+++ (+++ = 90-100% control at 100 ppm)	+++ (+++ = 90-100% control at 100 ppm)	++ (++ = 90-100% control at 400 ppm)	+ (+ = 20-89% control at 400 ppm)	80	- (- = 0-19% control at 400 ppm)	0	0	0	0	0	
FC(F)(F)c1cc(CCOc2ncnc3ccccc23)cc(C(F)(F)F)c1 [Example 128, 4-[2-[3,5-di(trifluoromethyl)phenyl]ethoxy]quinazoline]	0	0	++ (++ = 90-100% control at 400 ppm)	+ (+ = 20-89% control at 400 ppm)	+ (+ = 20-89% control at 400 ppm)	+ (+ = 20-89% control at 400 ppm)	0	- (- = 0-19% control at 400 ppm)	0	0	0	0	0	
Fc1cccc2c(OCCc3ccccc3)ncnc12 [Example 95, 8-fluoro-4-(2-phenylethoxy)quinazoline]	0	0	+++ (+++ = 90-100% control at 100 ppm)	- (- = 0-19% control at 400 ppm)	+++ (+++ = 90-100% control at 100 ppm)	+++ (+++ = 90-100% control at 100 ppm)	0	- (- = 0-19% control at 400 ppm)	0	0	0	80	0	
CC(C)c1ccc(CCCc2ncnc3ccccc23)cc1 [Example 126, 4-[3-[4-(1-methylethyl)phenyl]propyl]quinazoline]	0	100	+ (+ = 20-89% control at 400 ppm)	+++ (+++ = 90-100% control at 100 ppm)	++ (++ = 90-100% control at 400 ppm)	+ (+ = 20-89% control at 400 ppm)	80	- (- = 0-19% control at 400 ppm)	0	0	100	100	0	
CCOc1ccc(CCOc2ncnc3ccccc23)cc1OC [Example 21, 4-[2-(4-ethoxy-3-methoxyphenyl)ethoxy]quinazoline]	100	60	+++ (+++ = 90-100% control at 100 ppm)	+++ (+++ = 90-100% control at 100 ppm)	+++ (+++ = 90-100% control at 100 ppm)	+++ (+++ = 90-100% control at 100 ppm)	80	- (- = 0-19% control at 400 ppm)	0					
CCOc1ccc(CCOc2ncnc3ccccc23)cc1 [Example 15, 4-[2-(4-ethoxyphenyl)ethoxy]quinazoline]	0	0	+++ (+++ = 90-100% control at 100 ppm)	+++ (+++ = 90-100% control at 100 ppm)	+++ (+++ = 90-100% control at 100 ppm)	+++ (+++ = 90-100% control at 100 ppm)	0	- (- = 0-19% control at 400 ppm)	0					
CC(C)(C)c1ccc(CCCOc2ncnc3ccccc23)cc1 [Example 138, 4-[3-[4-(1,1-dimethylethyl)phenyl]propoxy]quinazoline]	0	80	++ (++ = 90-100% control at 400 ppm)	+ (+ = 20-89% control at 400 ppm)	++ (++ = 90-100% control at 400 ppm)	- (- = 0-19% control at 400 ppm)	60	- (- = 0-19% control at 400 ppm)	0	0	0	30	0	
CC(C)c1ccccc1CCOc1ncnc2c(F)cccc12 [Example 195, 8-fluoro-4-[2-[2-(i-propyl)phenyl]ethoxy]quinazoline]	0	0	+++ (+++ = 90-100% control at 100 ppm)	+++ (+++ = 90-100% control at 100 ppm)	++ (++ = 90-100% control at 400 ppm)	+++ (+++ = 90-100% control at 100 ppm)	0	- (- = 0-19% control at 400 ppm)	0	0	0	80	0	
FC(F)(F)c1cccc(Oc2ccc(CCOc3ncnc4ccccc34)cc2)c1 [Example 188, 4-[2-[4-[3-(trifluoromethyl)phenoxy]phenyl]ethoxy]quinazoline]	100		+++ (+++ = 90-100% control at 100 ppm)	+++ (+++ = 90-100% control at 100 ppm)	+++ (+++ = 90-100% control at 100 ppm)	+++ (+++ = 90-100% control at 100 ppm)	80	- (- = 0-19% control at 400 ppm)	80	0	100	100	0	
CC(C)Oc1cccc(CCOc2ncnc3ccccc23)c1 [Example 146, 4-[2-[3-(1-methylethoxy)phenyl]ethoxy]quinazoline]	0	60	++ (++ = 90-100% control at 400 ppm)	+++ (+++ = 90-100% control at 100 ppm)	+++ (+++ = 90-100% control at 100 ppm)	++ (++ = 90-100% control at 400 ppm)	80	+ (+ = 20-89% control at 400 ppm)	0	0	100	100	0	
[3-(3-methoxyphenyl)propyl]quinazoline [Example 72]			++ (++ = 90-100% control at 400 ppm)	+ (+ = 20-89% control at 400 ppm)	++ (++ = 90-100% control at 400 ppm)	+++ (+++ = 90-100% control at 100 ppm)		- (- = 0-19% control at 400 ppm)						CRW RESULTS % [1, 10]: 0%; SM RESULTS % ([2]; spray rate 400 ppm): 0%; MA RESULTS % ([7]; spray rate 400 ppm): 0%; SAW RESULTS % ([9]; spray rate 400 ppm): 100%
c1ccc(Oc2ccc(CCNc3ncnc4ccccc34)cc2)cc1 [Example 104, N-[2-(4-phenoxyphenyl)ethyl]-4-quinazolinamine]	100	0	+++ (+++ = 90-100% control at 100 ppm)	+++ (+++ = 90-100% control at 100 ppm)	+++ (+++ = 90-100% control at 100 ppm)	+++ (+++ = 90-100% control at 100 ppm)	0	- (- = 0-19% control at 400 ppm)	100					CRW RESULTS % ([1]; rate not given): 0%; SM RESULTS % ([2]; rate not given): 100%; MA RESULTS % ([7]; rate not given): 100%; SAW RESULTS % ([9]; rate not given): 0%
